Structures are written as SMILES. Converted amounts (≈) assume the structure as drawn. A value given as a limit tells only on which side of the number the result lay.

Experimental findings from PubChem BioAssay AID1996 are described below.

The conditions of the data set: buffer; pH 7.4; 200.0 µM.
In turn, `O=C(Nc1ccc(S(=O)(=O)N2CCCCC2)cc1)C1CC1` came in with a solubility (kinetic) of more than 46.3 µg/mL.
`Cc1cccc(NC(=O)N2CCCCCC2)c1` yielded a kinetic solubility of more than 34.8 µg/mL.
Take `O=C(CCC(=O)N1CCN(c2ccccn2)CC1)c1cccs1`: the solubility (kinetic) was more than 49.4 µg/mL.
As for `Cc1cc(-c2nnc(CCC(=O)NCc3ccc(F)c(F)c3)o2)no1`, the solubility (kinetic) is more than 52.2 µg/mL.
`CCn1c(-c2ccc[nH]c2=O)nc2ccccc21` came in with a solubility (kinetic) of more than 35.9 µg/mL.
Molecule `O=C(Nc1cc(Cl)ccc1Cl)C1Cc2ccccc2O/C1=N\O` (stereo not drawn) returned a solubility (kinetic) of 2.8 µg/mL (≈ 7.97 µM).
Regarding `O=C(Cc1ccccc1[N+](=O)[O-])OCC(=O)c1ccccc1Br`, the solubility (kinetic) is 39.1 µg/mL (≈ 103 µM).
As for `CC(C)C[C@H](NC(=O)NC1CCCc2ccccc21)C(=O)O` (stereo partly drawn), the figure is more than 45.7 µg/mL; as for `CCOc1ccc2[nH]c3c(c2c1)CNCC3`, 25.9 µg/mL (≈ 120 µM); as for `COC(=O)c1c(C)nc2nonc2c1N`, 30 µg/mL (≈ 144 µM).
For the molecule `CSCCC(NC(=O)c1ccccc1)C(=O)N1CCN(C(=O)c2ccccc2)CC1` (stereo not drawn), the kinetic solubility was more than 63.8 µg/mL.
For `Cc1ccsc1CN(C)CC(=O)NCC(=O)Nc1ccc(F)c(F)c1F`, the solubility (kinetic) amounted to 10.8 µg/mL (≈ 28 µM).
Molecule `O=C(NCc1ccccc1)C12CC3CC(CC(Br)(C3)C1)C2` gave a solubility (kinetic) of 6.6 µg/mL (≈ 19 µM).
`CCn1c(=O)c(C(=O)NCc2ccccc2OC)c(O)c2ccccc21` came in with a kinetic solubility of 0.7 µg/mL (≈ 1.99 µM).
For `O=C(Cc1ccsc1)NCC(=O)Nc1ccccc1Br` the value was more than 53 µg/mL; for `CC(=O)c1ccccc1OC(=O)c1ccc([N+](=O)[O-])o1`, more than 41.3 µg/mL.
With `O=C(Nc1ccccc1Br)C1CCN(S(=O)(=O)c2cccs2)CC1`, the solubility (kinetic) worked out at 7.8 µg/mL (≈ 18.2 µM).
As to `COc1ccc(CCNC(=O)COC(=O)c2cc3ccccc3oc2=O)cc1OC`, the kinetic solubility was more than 61.7 µg/mL.
Take `CC(C)(C)c1cc(CCC(=O)N2CCC2)cc(C(C)(C)C)c1O`: the solubility (kinetic) was found to be 42.6 µg/mL (≈ 134 µM).
As for `CC1CC(C)CN(S(=O)(=O)c2ccc3c(c2)CC(=O)N3)C1` (stereo not drawn), the figure is 9.4 µg/mL (≈ 30.5 µM); as for `CC(NC(=O)CN(C)CC(=O)Nc1ccc(Cl)cc1)c1ccc(F)cc1` (stereo not drawn), more than 56.7 µg/mL; as for `Cc1cc(C)nc(SCC(=O)OCC(=O)Nc2ccccc2)n1`, more than 49.7 µg/mL.
In the case of `CSc1ncc(CN2CCN(C3CCCC3)C(CCO)C2)cn1` (stereo not drawn), the kinetic solubility was 42.6 µg/mL (≈ 127 µM).
`Cc1ccc(N(C(=O)Nc2ccccc2)C2=NCCC2)cc1` registered a kinetic solubility of 4.5 µg/mL (≈ 15.3 µM).
`O=C(NC1CCCCCCC1)c1cc(-c2ccccn2)nc2ccccc12`: the kinetic solubility is less than 0.3 µg/mL.
Turning to `CCC(C)NC(=O)c1ccc2c(c1)N(Cc1ccccc1)C(=O)CS2` (stereo not drawn), the solubility (kinetic) stood at 3.6 µg/mL (≈ 10.2 µM).
The molecule `O=C(CSc1ncnc2ccccc12)c1ccco1` displayed a kinetic solubility of more than 40.5 µg/mL.
As for `CSc1nsc(SCC(=O)NCc2ccccc2)n1`, the figure is 46.7 µg/mL (≈ 150 µM); as for `CCOc1ccc(S(=O)(=O)N2CCNC(=O)C2)cc1`, more than 42.6 µg/mL.
As for `CN1CCN(CCOc2ccc(Cc3ccccc3)cc2)CC1.Cl`, the figure is 40.4 µg/mL.
The molecule `CC(NC(=O)c1ccco1)c1ccc(-n2ccnc2)cc1` (stereo not drawn) returned a solubility (kinetic) of more than 42.2 µg/mL.
Molecule `C#CCOc1nc2c(c(=O)n(C)c(=O)n2C)n1Cc1ccccc1` displayed a kinetic solubility of 8.9 µg/mL (≈ 27.4 µM).
With `CC(C)(C)NC(=O)/C=C/c1cccs1`, the solubility (kinetic) is more than 31.4 µg/mL.
For `O=C(CCCc1ccccc1)NCCc1ccccc1`, the solubility (kinetic) was 29.3 µg/mL (≈ 110 µM).
Turning to `O=C(/C=C/c1ccc(-c2ccc(F)cc2)o1)N1CCCC1`, the solubility (kinetic) is 31.7 µg/mL (≈ 111 µM).
As for `Cc1cc(=O)oc2cc(NC(=O)c3cccc(F)c3)ccc12`, the figure is less than 0.6 µg/mL; as for `Cc1cccc(N2CC(C(=O)Nc3ccc(N4CCOCC4)cc3)CC2=O)c1C` (stereo not drawn), more than 59 µg/mL.
On to `CCCCCOc1ccc(C(=O)CCN2CCOCC2)cc1.Cl`, for which the kinetic solubility is 34.9 µg/mL.
The molecule `COc1cc(SC)ccc1C(=O)N1CCc2ccccc21` registered a kinetic solubility of 4.5 µg/mL (≈ 15 µM).
As for `Nc1cccc(C(=O)N/N=C/c2ccsc2)c1`, the figure is more than 36.8 µg/mL.
For `CCN1C(=O)c2cccc3c(N)ccc1c23`, the kinetic solubility is more than 31.8 µg/mL.
The molecule `COC(=O)[C@@H](NC(=O)/C=C/c1ccc(OC)cc1)C(C)C` showed a kinetic solubility of more than 43.7 µg/mL.
In the case of `COC(=O)C1CN(C(=O)C(C)Oc2ccccc2F)c2ccccc2O1` (stereo not drawn), the solubility (kinetic) is more than 53.9 µg/mL.
For `O=C(Cn1cccc(C(F)(F)F)c1=O)c1ccc(Cl)cc1` the value was more than 47.4 µg/mL; for `O=C(CCCc1c[nH]c2ccccc12)NCc1cccs1`, 41.1 µg/mL (≈ 138 µM); for `CC(=O)N/C(=C\c1ccccc1)C(=O)OCc1ccc(C)cc1`, more than 46.4 µg/mL.
In the case of `COC(=O)Cc1ccc(NC(=S)N2CCN(c3ccccn3)CC2)cc1`, the solubility (kinetic) was 5 µg/mL (≈ 13.5 µM).
For the molecule `CCn1c(=O)c2cc(C(=O)NCCN(C)C)sc2c2ccccc21`, the solubility (kinetic) stood at 51.5 µg/mL (≈ 150 µM).
`O=C(COC(=O)/C=C/c1ccccc1)NCCc1ccc(F)cc1` showed a solubility (kinetic) of 3.5 µg/mL (≈ 10.7 µM).
`Cc1cc(C)cc(OCC(=O)NC(C)c2ccccc2)c1` (stereo not drawn) came in with a solubility (kinetic) of 28.8 µg/mL (≈ 102 µM).
As to `O=C(Nc1ccc(F)cc1)Nc1ccc2c(c1)CCC2`, the kinetic solubility is less than 0.3 µg/mL.
The molecule `CC1(C)CC(=O)C(C=NCCN2CCN(C(=O)CCl)CC2)=C(O)C1` had a solubility (kinetic) of more than 53.4 µg/mL.
For `COc1cc(CC2C(=O)Nc3ccccc32)cc(C)c1O` (stereo not drawn) the value was more than 42.5 µg/mL.
With `CCCn1c(=N)c(C#N)cc2c(=O)n3cccc(C)c3nc21`, the solubility (kinetic) worked out at 2.3 µg/mL (≈ 7.84 µM).
As for `CN(C)c1cc(Nc2cccc(O)c2)c([N+](=O)[O-])c2nonc12`, the kinetic solubility came to 0.4 µg/mL (≈ 1.27 µM).
`Cc1c(C)n(Cc2ccccc2)c2ncnc(NCCO)c12`: the solubility (kinetic) is 41.2 µg/mL (≈ 139 µM). Against the preceding molecule, the solubility kinetic is about 100-fold higher.
For `O=C(CCC(=O)c1ccc(-c2ccccc2)cc1)Nc1cccnc1` the value was 0.7 µg/mL (≈ 2.12 µM); for `C=CCn1cc(C=C2C(=O)N(C)C(=O)N(C)C2=O)c2ccccc21`, 0.8 µg/mL (≈ 2.47 µM).
Take `Cc1ccc(N2C(=O)C(Cl)=C(N3CCCCCC3)C2=O)cc1`: the solubility (kinetic) worked out at 10.6 µg/mL (≈ 33.2 µM).
Take `COc1ccc(C2NC(=O)NC3=C2C(=O)CCC3)cc1` (stereo not drawn): the solubility (kinetic) was more than 40.8 µg/mL.
As to `O=C(COc1ccc(Cl)cc1)Nc1ccc2c(c1)OCO2`, the solubility (kinetic) is less than 0.7 µg/mL.
In the case of `Cc1[nH]c2ccccc2c1-c1csc(NC(=O)CSCCO)n1`, the kinetic solubility was more than 52.1 µg/mL.
For `O=C(O)c1cccnc1SCc1cccc(Br)c1` the value was more than 48.6 µg/mL; for `O=C(Nc1nc2ccccc2[nH]1)c1ccccc1O`, 0.2 µg/mL (≈ 0.79 µM).
`CC(=O)Nc1cc(C)c2nc(NC(C)=O)sc2c1` registered a solubility (kinetic) of 25.7 µg/mL (≈ 97.6 µM).
On to `CCOC(=O)c1c(C=O)c2ccccc2n1Cc1ccccc1F`, for which the kinetic solubility was less than 0.7 µg/mL.
For `COc1ccc(NC(=O)NC2CCCc3ccccc32)cc1OC` (stereo not drawn), the kinetic solubility is 1.1 µg/mL (≈ 3.37 µM).
As for `CC1CCN(c2nc(N(C)c3ccccc3)nc(N)c2[N+](=O)[O-])CC1`, the figure is 4.6 µg/mL (≈ 13.4 µM); as for `Cc1ccc(N2CC(c3nc4ccccc4n3C)CC2=O)cc1` (stereo not drawn), more than 45.8 µg/mL; as for `Cn1c(C2=C(O)CN(Cc3ccccc3)C2=N)[n+](C)c2ccccc21.[Cl-]`, 48.2 µg/mL.
`Cc1cccc(N2CCN(C(=O)c3cccc(S(=O)(=O)N4CCCCC4)c3)CC2)c1C` came in with a kinetic solubility of 2.9 µg/mL (≈ 6.57 µM). Compared with the last molecule, the solubility kinetic is about 17-fold lower.
For the molecule `COc1ccc2cc(C(=O)NCCCN3CCCC3=O)[nH]c2c1`, the kinetic solubility was more than 47.3 µg/mL.
In the case of `COc1ccccc1C(=O)N1CCC(N2CCN(c3ccccc3)CC2)CC1`, the kinetic solubility is 41.5 µg/mL (≈ 109 µM).
For `Cc1cccnc1NC(=O)c1ccc(COc2ccccc2)o1`, the solubility (kinetic) was more than 46.3 µg/mL.
For `CN(C)C(=O)CSc1nc2cc(S(=O)(=O)N3CCOCC3)ccc2o1` the value was more than 57.8 µg/mL.
The molecule `Cl.O=C(NCCCN1CCOCC1)C(=O)c1c[nH]c2ccccc12` gave a solubility (kinetic) of more than 52.8 µg/mL.
On to `CC1(C)CC(NC(=S)Nc2ccc([N+](=O)[O-])cc2)CC(C)(C)N1`, for which the solubility (kinetic) amounted to 42.1 µg/mL (≈ 125 µM).
`Cc1ccc(NC(=O)CCOc2ccccc2C)cc1C` came in with a kinetic solubility of 1.7 µg/mL (≈ 6 µM). This solubility kinetic is about 25-fold lower than that of the molecule before.
In the case of `COc1ccccc1NC(=O)c1ccc2c(c1)CCN2S(C)(=O)=O`, the solubility (kinetic) was more than 52 µg/mL.
In turn, `CC(C)(C)NC(=O)CSc1nc2cc(S(=O)(=O)N3CCCCC3)ccc2o1` gave a kinetic solubility of 3.7 µg/mL (≈ 8.99 µM).
`COc1ccc(CCNC(=O)c2noc(C(C)C)c2[N+](=O)[O-])cc1OC` showed a kinetic solubility of more than 54.5 µg/mL.
The molecule `O=C(CS(=O)(=O)c1ccc(F)cc1)N1CCOCC1` returned a solubility (kinetic) of more than 43.1 µg/mL.
Turning to `CCS(=O)(=O)c1ccc(O)c(NC(=O)CCCC(=O)O)c1`, the solubility (kinetic) worked out at 41.5 µg/mL (≈ 132 µM).
As to `C[N+](C)(C)c1ccccc1.[I-]`, the kinetic solubility is more than 39.5 µg/mL.
In the case of `O=c1[nH]c2ccccc2c(O)c1O`, the solubility (kinetic) is more than 26.6 µg/mL.
As for `CC(C)(C)N(Cc1ccccc1)C(=O)COC(=O)C1CCCCC1`, the figure is 24.4 µg/mL (≈ 73.6 µM); as for `Cc1cccc(C(=O)OCC(=O)NC(=O)c2ccccc2)c1O`, less than 0.7 µg/mL.
As to `COc1ccc(CC(=O)NCC2CCCCC2)cc1OC`, the kinetic solubility is more than 43.7 µg/mL.
Molecule `O=C1/C(=C/c2ccc([N+](=O)[O-])cc2)CCC1C1CCCC1` (stereo not drawn) returned a solubility (kinetic) of 1 µg/mL (≈ 3.5 µM).
Take `Nc1nc(-c2cc3c(cc2Cl)OCCO3)cs1`: the solubility (kinetic) amounted to 25.9 µg/mL (≈ 96.4 µM).
As for `O=S(=O)(/N=C(\[O-])C[n+]1ccccc1)c1ccc(Cl)cc1`, the kinetic solubility is more than 46.6 µg/mL.
`CCOC(=O)C1=C(c2ccc(O)cc2)NC(=O)NC1C` (stereo not drawn) registered a solubility (kinetic) of 37 µg/mL (≈ 134 µM).
On to `CCNCc1ccc(OCc2cccs2)c(OCC)c1`, for which the solubility (kinetic) was more than 43.7 µg/mL.
`COc1ccccc1NS(=O)(=O)c1ccc(C(=O)NCC(c2ccc(F)cc2)N2CCOCC2)cc1` (stereo not drawn): the solubility (kinetic) was more than 77 µg/mL.
For `FC(F)(F)Oc1ccc(NC2=NCCCS2)cc1` the value was 41.4 µg/mL (≈ 150 µM); for `Nc1ccc(N2CCN(c3ccccc3)CC2)c(F)c1`, more than 40.7 µg/mL.
In turn, `Cc1ccc(C)c(N2CCN(CCCc3ccccc3)CC2)c1` returned a kinetic solubility of 4.6 µg/mL (≈ 14.9 µM).
`CN(C)C(CNC(=O)c1ccc(NC(=O)CC#N)cc1)c1ccccc1` (stereo not drawn) gave a solubility (kinetic) of more than 52.6 µg/mL.
As for `CC(C)N(C(=O)COC(=O)c1cccnc1Cl)c1ccccc1`, the figure is more than 49.9 µg/mL; as for `Cc1ccccc1NC(=O)C(=O)NCCCN1CCOCC1`, more than 45.8 µg/mL.
`Cc1cc(Cl)ccc1NC(=S)NCCc1ccc(Cl)cc1` returned a solubility (kinetic) of less than 0.4 µg/mL.
In the case of `O=C(CCNC(=O)c1ccco1)NCc1ccc(C(=O)O)cc1`, the solubility (kinetic) was more than 47.4 µg/mL.
Molecule `O=c1cc(C(F)(F)F)nc(-c2ccccc2OC(F)(F)F)[nH]1` showed a solubility (kinetic) of more than 48.6 µg/mL.

Usually kinetic solubility stands for the concentration staying in solution when a stock, usually in DMSO, is diluted into the medium.
